Legend:
mPTP-active Daoy cell = experiment: Inhibitory effect on mPTP-active Daoy cell (Promega CellTiter-Glo, intracellular ATP); assay type: cell-based, human; conditions: Daoy cell transfected with empty virus vector without PPIF shRNA
mPTP-inactive Daoy cell = experiment: Inhibitory effect on mPTP-inactive Daoy cell (PPIF shRNA; Promega CellTiter-Glo, intracellular ATP); assay type: cell-based, human; conditions: Daoy cell transfected with virus vector carrying PPIF shRNA
From the text: The activity of mitochondria permeability transition pore (mPTP) was regulated by the PPIF protein. […] PPIF protein activity was restricted by the expression level of PPIF protein in cell.

Compound	IC50 (mPTP-active Daoy cell; Homo sapiens, Daoy) [µM]	IC50 (mPTP-inactive Daoy cell; Homo sapiens, Daoy) [µM]	IC50 (mPTP-active Daoy cell) [µM]	IC50 (mPTP-inactive Daoy cell) [µM]
COc1ccc2c(c1OCCCCCCCl)C(C(Cl)(Cl)Cl)N1CCc3cc4c(cc3C1=C2)OCO4 (stereo not drawn) [AB35475]	2.64	1.23	–	–
COc1ccc2c(c1OCCCCOc1ccccc1)C(C(Cl)(Cl)Cl)N1CCc3cc4c(cc3C1=C2)OCO4 (stereo not drawn) [AB35476]	2.35	1.08	–	–
COc1ccc2c(c1OCCCF)C(C(Cl)(Cl)Cl)N1CCc3cc4c(cc3C1=C2)OCO4 (stereo not drawn) [AB35478]	3.78	1.51	–	–
COc1ccc2c(c1OC)C(C(Cl)(Cl)Cl)N1CCc3cc4c(cc3C1=C2CCCc1ccccc1)OCCO4 (stereo not drawn) [AB35484]	3.06	0.97	–	–
COc1ccc2c(c1OCCCF)C(C)N1CCc3cc4c(cc3C1=C2)OCO4 (stereo not drawn) [AB35485]	16.3	5.27	–	–
COc1ccc2c(c1NCCc1ccccc1)C(C(Cl)(Cl)Cl)N1CCc3cc4c(cc3C1=C2)OCO4 (stereo not drawn) [AB35486]	0.71	0.23	–	–
CCCCCCOc1c(OC)ccc2c1C(C(Cl)(Cl)Cl)N1CCc3cc4c(cc3C1=C2)OCO4 (stereo not drawn) [AB35487]	1.77	0.47	–	–
CCC1=C2c3cc4c(cc3CCN2C(C(Cl)(Cl)Cl)c2c1ccc(OC)c2OC)OCO4 (stereo not drawn) [AB35488]	5.27	2.02	–	–
CCCCCCC1=C2c3cc4c(cc3CCN2C(C2CCCC2)c2c1ccc(OC)c2OC)OCO4 (stereo not drawn) [AB35489]	1.68	0.79	–	–
COc1ccc2c(c1OCCCCl)C(C1CCC1)N1CCc3cc4c(cc3C1=C2)OCO4 (stereo not drawn) [AB35490]	10.6	3.76	–	–
COc1ccc2c(c1OCCCCl)C(C1CCCCC1)N1CCc3cc4c(cc3C1=C2)OCO4 (stereo not drawn) [AB35491]	6.01	2.63	–	–
CCCC1=C2c3cc4c(cc3CCN2C(C(Cl)(Cl)Cl)c2c1ccc(OC)c2OC)OCO4 (stereo not drawn) [AB35492]	3.78	1.34	–	–
COc1ccc2c(c1OC)C(C)N1CCc3cc4c(cc3C1=C2CCCc1ccccc1)OCO4 (stereo not drawn) [AB35493]	3.33	1.02	–	–
CCCCOc1c(OC)ccc2c1C(C(Cl)(Cl)Cl)N1CCc3cc4c(cc3C1=C2)OCO4 (stereo not drawn) [AB35494]	1.28	0.36	–	–
COc1ccc2c(c1OCCCCCl)C(C(Cl)(Cl)Cl)N1CCc3cc4c(cc3C1=C2)OCO4 (stereo not drawn) [AB35496]	12.3	5.28	–	–
CCCCCCCCC1=C2c3cc4c(cc3CCN2C(C(Cl)(Cl)Cl)c2c1ccc(OC)c2OC)OCO4 (stereo not drawn) [AB35497]	3.28	1.15	–	–
COc1ccc2c(c1OC)C(C)N1CCc3cc4c(cc3C1=C2CCc1ccccc1)OCO4 (stereo not drawn) [AB35498]	6.35	3.1	–	–
CCOc1c(OC)ccc2c1C(C(Cl)(Cl)Cl)N1CCc3cc4c(cc3C1=C2)OCO4 (stereo not drawn) [AB35499]	6.45	3.15	–	–
COc1ccc2c(c1OC)C(C1CCCC1)N1CCc3cc4c(cc3C1=C2CCCCCCCl)OCO4 (stereo not drawn) [AB35500]	3.46	1.71	–	–

Compound	IC50 (mPTP-active Daoy cell; Homo sapiens, Daoy) [µM]	IC50 (mPTP-inactive Daoy cell; Homo sapiens, Daoy) [µM]	IC50 (mPTP-active Daoy cell) [µM]	IC50 (mPTP-inactive Daoy cell) [µM]
COc1ccc2c(c1OC)C(C(Cl)(Cl)Cl)N1CCc3cc4c(cc3C1=C2CCCCCCBr)OCO4 (stereo not drawn) [AB35501]	4.98	1.91	–	–
CCCCC1=C2c3cc4c(cc3CCN2C(C(Cl)(Cl)Cl)c2c1ccc(OC)c2OC)OCO4 (stereo not drawn) [AB35502]	6.14	2.97	–	–
CCCC1=C2c3cc4c(cc3CCN2C(C2CCCC2)c2c1ccc(OC)c2OC)OCO4 (stereo not drawn) [AB35504]	10.6	4.25	–	–
CCCCCOc1c(OC)ccc2c1C(C(Cl)(Cl)Cl)N1CCc3cc4c(cc3C1=C2)OCO4 (stereo not drawn) [AB35505]	1.24	0.42	–	–
CCCOc1c(OC)ccc2c1C(C(Cl)(Cl)Cl)N1CCc3cc4c(cc3C1=C2)OCO4 (stereo not drawn) [AB35506]	3.45	1.49	–	–
CCCCCCC1=C2c3cc4c(cc3CCN2C(C(Cl)(Cl)Cl)c2c1ccc(OC)c2OC)OCO4 (stereo not drawn) [AB35508]	2.25	0.99	–	–
COc1ccc2c(c1N1CCN(C)CC1)C(C1CCCC1)N1CCc3cc4c(cc3C1=C2)OCO4 (stereo not drawn) [AB35510]	–	–	0.83	0.29
CCCOc1c(OC)ccc2c1C(C1CCCC1)N1CCc3cc4c(cc3C1=C2)OCO4 (stereo not drawn) [AB35512]	4.27	1.57	–	–
COc1ccc2c(c1N1CCC(C(F)(F)F)CC1)C(C(Cl)(Cl)Cl)N1CCc3cc4c(cc3C1=C2)OCO4 (stereo not drawn) [AB35514]	3.42	1.33	–	–
COc1ccc2c(c1N1CCN(C)CC1)C(C(Cl)(Cl)Cl)N1CCc3cc4c(cc3C1=C2)OCO4 (stereo not drawn) [AB35518]	8.25	3.08	–	–
COc1ccc2c(c1N1CCN(C)CC1)C(C1CCCC1)N1CCc3cc4c(cc3C1=C2)OCO4 (stereo not drawn) [AB35519]	–	–	13.6	6.03
CCC(CC)COc1c(OC)ccc2c1C(C(Cl)(Cl)Cl)N1CCc3cc4c(cc3C1=C2)OCO4 (stereo not drawn) [AB35521]	2.4	1.03	–	–
CCCCCC1=C2c3cc4c(cc3CCN2C(C2CCCC2)c2c1ccc(OC)c2OC)OCO4 (stereo not drawn) [AB35522]	3.95	1.34	–	–
COc1ccc2c(c1OC)C(C1CCCC1)N1CCc3cc4c(cc3C1=C2CCCCCCBr)OCO4 (stereo not drawn) [AB35523]	3.22	1.39	–	–
COc1ccc2c(c1OC)C(C(Cl)(Cl)Cl)N1CCc3cc4c(cc3C1=C2CCCCCCCl)OCO4 (stereo not drawn) [AB35524]	4.04	1.9	–	–
COc1ccc2c(c1OCCCc1ccccc1)C(C(Cl)(Cl)Cl)N1CCc3cc4c(cc3C1=C2)OCO4 (stereo not drawn) [AB35525]	2.48	0.7	–	–
COc1ccc2c(c1OCc1ccccc1-c1ccccc1)C(C(Cl)(Cl)Cl)N1CCc3cc4c(cc3C1=C2)OCO4 (stereo not drawn) [AB35531]	3.6	1.55	–	–
C=CCOc1c(OC)ccc2c1C(C(Cl)(Cl)Cl)N1CCc3cc4c(cc3C1=C2)OCO4 (stereo not drawn) [AB35534]	3.92	1.28	–	–
COc1ccc2c(c1OCCCCc1ccccc1)C(C(Cl)(Cl)Cl)N1CCc3cc4c(cc3C1=C2)OCO4 (stereo not drawn) [AB35535]	0.59	0.18	–	–

Compound	IC50 (mPTP-active Daoy cell; Homo sapiens, Daoy) [µM]	IC50 (mPTP-inactive Daoy cell; Homo sapiens, Daoy) [µM]	IC50 (mPTP-active Daoy cell) [µM]	IC50 (mPTP-inactive Daoy cell) [µM]
CCCOc1c(OC)ccc2c1CN1CCc3cc4c(cc3C1=C2)OCO4 [AB35536]	1.3	0.4	–	–
COc1ccc2c(c1OCCCCl)CN1CCc3cc4c(cc3C1=C2)OCO4 [AB35543]	1.22	0.44	–	–
COc1ccc2c(c1OCCCBr)CN1CCc3cc4c(cc3C1=C2)OCO4 [AB35544]	0.72	0.2	–	–
COc1ccc2c(c1N1CCC(C)CC1)CN1CCc3cc4c(cc3C1=C2)OCO4 [AB35545]	0.53	0.2	–	–
COc1ccc2c(c1N1CCC(Cl)CC1)CN1CCc3cc4c(cc3C1=C2)OCO4 [AB35550]	6.36	2.05	–	–
COc1ccc2c(c1OCCCF)CN1CCc3cc4c(cc3C1=C2)OCO4 [AB35590]	4.54	1.41	–	–
CCOc1c(OC)ccc2c1CN1CCc3cc4c(cc3C1=C2)OCO4 [AB35594]	2.66	1.1	–	–
COc1ccc2c(c1OCCF)CN1CCc3cc4c(cc3C1=C2)OCO4 [AB35599]	5.41	2.43	–	–
COc1ccc2c(c1OCCBr)CN1CCc3cc4c(cc3C1=C2)OCO4 [AB36403]	1.66	0.54	–	–
[2H]C1c2c(ccc(OC)c2OC)C=C2c3cc4c(cc3CCN21)OCO4 (stereo not drawn) [AB36415]	2.18	1.07	–	–
CCCC1c2c(ccc3c2OCO3)C=C2c3cc4c(cc3CCN21)OCO4 (stereo not drawn) [AB36416]	3.78	1.44	–	–
C1=C2c3cc4c(cc3CCN2C(C2CCCC2)c2c1ccc1c2OCO1)OCO4 (stereo not drawn) [AB36423]	6.76	2.02	–	–
CCC1=C2c3cc4c(cc3CCN2C(C(Cl)(Cl)Cl)c2c1ccc1c2OCO1)OCO4 (stereo not drawn) [AB36426]	30.9	35	–	–
CCCC1=C2c3cc4c(cc3CCN2C(C(Cl)(Cl)Cl)c2c1ccc1c2OCO1)OCO4 (stereo not drawn) [AB36427]	11.9	4.3	–	–
C1=C2c3cc4c(cc3CCN2Cc2cc3c(cc21)OCO3)OCO4 [AB36428]	0.92	0.4	–	–
CCCC1=C2c3cc4c(cc3CCN2C(C2CCCC2)c2c1ccc1c2OCO1)OCO4 (stereo not drawn) [AB36432]	4.32	1.88	–	–
CCCCCC1c2c(ccc3c2OCO3)C=C2c3cc4c(cc3CCN21)OCO4 (stereo not drawn) [AB36433]	1.92	0.58	–	–
[2H]C1([2H])c2c(ccc(OC)c2OC)C=C2c3cc4c(cc3CCN21)OCO4 [AB36434]	2.42	1.13	–	–
[2H]C1c2c(ccc(OC)c2OCCC)C=C2c3cc4c(cc3CCN21)OCO4 (stereo not drawn) [AB36437]	1.37	0.54	–	–

— patent US20250197389A1, “NITROGEN-CONTAINING HETEROCYCLIC COMPOUND” (SHANGHAI SHIJIANG BIOTECHNOLOGY CO., LTD, priority 2022, published 2025)
